Molecules are shown by their SMILES. A value given as a limit tells only on which side of the number the result lay.

We go through eleven compounds from article PMC11181338 (Journal of Medicinal Chemistry, 2024).

Data set [1] concerns hERG channels. The note with it: cited from earlier work; for % of hERG current blocked: 10 μM. A general note: The hERG channel carries a current that helps repolarise heart muscle cells.
Data set [2] deals with T1, human KCNT1 (Homo sapiens, UniProt Q5JUK3).
T1 sequence (Q5JUK3 1-1256 isoform Q5JUK3-2): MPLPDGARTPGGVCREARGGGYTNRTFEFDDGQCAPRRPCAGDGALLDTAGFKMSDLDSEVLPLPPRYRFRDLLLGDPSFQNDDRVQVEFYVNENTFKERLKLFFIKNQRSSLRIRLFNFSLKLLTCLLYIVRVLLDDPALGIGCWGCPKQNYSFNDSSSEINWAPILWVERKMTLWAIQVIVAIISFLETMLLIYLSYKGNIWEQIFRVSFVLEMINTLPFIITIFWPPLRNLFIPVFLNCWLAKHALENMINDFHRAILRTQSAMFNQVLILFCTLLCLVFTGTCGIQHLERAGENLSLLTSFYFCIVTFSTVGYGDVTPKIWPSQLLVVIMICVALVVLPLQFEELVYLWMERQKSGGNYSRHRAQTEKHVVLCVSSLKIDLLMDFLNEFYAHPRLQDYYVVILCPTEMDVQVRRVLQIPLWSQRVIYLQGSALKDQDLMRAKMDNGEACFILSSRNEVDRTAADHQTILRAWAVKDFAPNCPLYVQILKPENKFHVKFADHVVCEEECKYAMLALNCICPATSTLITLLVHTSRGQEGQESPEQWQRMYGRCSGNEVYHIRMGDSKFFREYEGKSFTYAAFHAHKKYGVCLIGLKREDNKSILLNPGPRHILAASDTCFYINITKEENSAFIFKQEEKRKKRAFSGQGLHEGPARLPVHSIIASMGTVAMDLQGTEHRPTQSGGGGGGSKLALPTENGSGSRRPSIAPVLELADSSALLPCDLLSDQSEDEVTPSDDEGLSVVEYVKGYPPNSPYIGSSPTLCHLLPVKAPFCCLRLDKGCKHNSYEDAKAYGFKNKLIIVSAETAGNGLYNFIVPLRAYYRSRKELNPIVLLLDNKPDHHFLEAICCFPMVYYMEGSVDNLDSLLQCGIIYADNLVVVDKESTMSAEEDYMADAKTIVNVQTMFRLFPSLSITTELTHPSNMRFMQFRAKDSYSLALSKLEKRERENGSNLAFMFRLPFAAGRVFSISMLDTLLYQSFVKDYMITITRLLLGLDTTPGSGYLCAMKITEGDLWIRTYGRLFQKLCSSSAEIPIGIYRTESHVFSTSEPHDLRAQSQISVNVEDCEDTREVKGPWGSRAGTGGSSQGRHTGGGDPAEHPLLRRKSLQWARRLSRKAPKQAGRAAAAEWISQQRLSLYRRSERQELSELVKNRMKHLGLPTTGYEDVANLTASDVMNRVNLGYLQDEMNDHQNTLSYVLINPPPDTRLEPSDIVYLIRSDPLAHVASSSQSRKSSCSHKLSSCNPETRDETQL
The experiment in a line: FluxOR thallium. The data set is classed as cell-based.

The target in data set [3] is T1, human KCNT1. The experiment in a line: Whole-cell patch-clamp, CHO cells transiently transfected with hKCNT1. It counts as cell-based. The following applies: 10 μM.
The target in data set [4] is hERG (Homo sapiens, UniProt Q12809). The experiment in a line: Whole-cell patch-clamp, CHO cells transiently transfected with hERG. The following applies: for inhibition at 10 µM: human, pH 7.4, % of hERG inhibition, tail currents at −100 mV; for hERG-blocking activity: 10 μM. In general terms: In patch-clamp work, channel activity is measured electrically.
Sequence of hERG (Q12809 whole entry): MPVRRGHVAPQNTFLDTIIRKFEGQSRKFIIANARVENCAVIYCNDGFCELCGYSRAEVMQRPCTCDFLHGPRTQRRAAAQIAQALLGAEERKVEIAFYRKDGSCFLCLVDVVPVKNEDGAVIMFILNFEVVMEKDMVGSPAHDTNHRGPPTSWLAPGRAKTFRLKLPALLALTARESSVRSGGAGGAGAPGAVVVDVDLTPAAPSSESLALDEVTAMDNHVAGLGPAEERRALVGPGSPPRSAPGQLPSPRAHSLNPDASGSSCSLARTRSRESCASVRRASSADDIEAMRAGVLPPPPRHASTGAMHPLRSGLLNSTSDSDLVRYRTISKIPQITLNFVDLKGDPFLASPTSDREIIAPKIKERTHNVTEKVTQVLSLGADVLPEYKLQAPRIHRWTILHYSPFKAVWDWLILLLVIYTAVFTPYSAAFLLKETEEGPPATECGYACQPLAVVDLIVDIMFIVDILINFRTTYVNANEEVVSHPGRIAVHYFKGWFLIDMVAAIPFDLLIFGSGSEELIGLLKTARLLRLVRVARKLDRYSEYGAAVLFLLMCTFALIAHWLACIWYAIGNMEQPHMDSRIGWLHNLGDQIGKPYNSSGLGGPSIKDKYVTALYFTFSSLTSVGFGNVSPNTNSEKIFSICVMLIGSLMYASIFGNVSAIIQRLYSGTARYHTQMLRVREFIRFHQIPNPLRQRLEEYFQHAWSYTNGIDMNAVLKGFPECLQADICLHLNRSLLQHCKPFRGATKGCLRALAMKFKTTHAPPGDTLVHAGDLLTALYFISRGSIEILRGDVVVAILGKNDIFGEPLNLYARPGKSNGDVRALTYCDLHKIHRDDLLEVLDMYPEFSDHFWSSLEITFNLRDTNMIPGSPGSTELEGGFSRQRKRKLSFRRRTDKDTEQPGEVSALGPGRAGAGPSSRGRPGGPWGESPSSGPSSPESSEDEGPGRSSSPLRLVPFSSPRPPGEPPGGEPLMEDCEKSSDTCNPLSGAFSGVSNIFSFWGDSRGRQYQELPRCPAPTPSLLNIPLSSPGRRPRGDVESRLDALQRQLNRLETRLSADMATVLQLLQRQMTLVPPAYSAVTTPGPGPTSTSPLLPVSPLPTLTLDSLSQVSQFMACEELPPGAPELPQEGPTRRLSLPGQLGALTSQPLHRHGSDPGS
Data set [5] can be described thus: Plasma protein binding. The data set is classed as in vitro ADME. The following applies: 10 μM, 4 h, 37 °C.
Data set [6] is described as follows: In vitro drug metabolism using human liver microsomes. The note with it: HLM.
The nature of data set [7]: Human plasma stability. It counts as in vitro ADME.
Data set [8] has as its target T2, human KCNT2 (Homo sapiens, UniProt Q6UVM3).
T2 sequence (Q6UVM3 1-1135): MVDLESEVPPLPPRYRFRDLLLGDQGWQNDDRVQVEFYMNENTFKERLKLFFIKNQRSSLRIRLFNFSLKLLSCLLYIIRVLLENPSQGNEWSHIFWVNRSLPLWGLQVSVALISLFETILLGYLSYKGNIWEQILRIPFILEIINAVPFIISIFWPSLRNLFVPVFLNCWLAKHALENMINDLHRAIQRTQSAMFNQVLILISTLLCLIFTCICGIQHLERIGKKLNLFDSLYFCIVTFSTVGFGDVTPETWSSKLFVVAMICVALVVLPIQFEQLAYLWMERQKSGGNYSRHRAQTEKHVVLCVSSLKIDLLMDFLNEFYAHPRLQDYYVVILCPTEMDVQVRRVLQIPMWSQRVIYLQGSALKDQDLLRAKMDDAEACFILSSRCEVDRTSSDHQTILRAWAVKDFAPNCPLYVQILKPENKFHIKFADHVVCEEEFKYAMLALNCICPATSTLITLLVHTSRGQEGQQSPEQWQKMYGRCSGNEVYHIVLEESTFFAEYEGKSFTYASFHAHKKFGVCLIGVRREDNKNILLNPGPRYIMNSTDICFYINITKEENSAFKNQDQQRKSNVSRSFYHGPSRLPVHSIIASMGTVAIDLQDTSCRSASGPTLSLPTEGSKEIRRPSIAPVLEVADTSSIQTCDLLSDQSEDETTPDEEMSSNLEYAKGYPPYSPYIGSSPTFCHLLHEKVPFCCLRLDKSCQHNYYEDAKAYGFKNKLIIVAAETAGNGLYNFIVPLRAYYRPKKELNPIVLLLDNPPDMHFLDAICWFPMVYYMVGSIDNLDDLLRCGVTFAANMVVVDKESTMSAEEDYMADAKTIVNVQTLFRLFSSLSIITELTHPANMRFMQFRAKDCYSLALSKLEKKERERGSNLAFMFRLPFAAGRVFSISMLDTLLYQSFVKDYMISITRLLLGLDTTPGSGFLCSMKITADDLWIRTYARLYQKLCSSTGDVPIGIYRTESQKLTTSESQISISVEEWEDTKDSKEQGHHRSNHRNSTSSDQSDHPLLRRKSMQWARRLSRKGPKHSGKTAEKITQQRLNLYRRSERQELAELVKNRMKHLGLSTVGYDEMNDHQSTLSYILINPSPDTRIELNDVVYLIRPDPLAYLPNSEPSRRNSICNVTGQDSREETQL
In words: Whole-cell patch-clamp, HEK cells expressing KCNT2. The data set is classed as cell-based. The following applies: KCNT2 currents.

Data set [9] has as its system untransfected CHO cells. In words: FluxOR Tl+ fluorescence assay in untransfected CHO cells. It counts as cell-based, Chinese Hamster. The note with it: 10 μM.
The test system of data set [10] is KCNT1. The note with it: read-out: KCNT1 IC50; cited from earlier work.
Data set [11] has as its system KCNT2. The following applies: up to 10 μM, Tl+ flux assay; cited from earlier work.
The test system of data set [12] is KCNT1 versus KCNT2 channels. The note with it: cited from earlier work.

With `O=C(Nc1cccc(C(F)(F)F)c1)c1ccc2nc(N3C(=O)c4ccccc4C3=O)sc2c1` [BC12], the “% of hERG current blocked” value in data set [1] was 15–20%.

As to `Cc1cc(O)ccc1N/C=C/C(=O)c1ccccc1` [BC13], the “% of hERG current blocked” value in data set [1] is recorded as 15–20%.

By inhibition is commonly meant the share of the control response that was lost under treatment. Higher therefore signals a response far below the control. On to `CC(C)(C)CNC(=O)Nc1ccc2c(c1)CCN2Cc1ccc(F)cc1` [CPK4, 1-[1-(4-Fluorobenzyl)indolin-5-yl]-3-neopentylurea], for which the “effect on the fluorescent signal” value in data set [2] (10 μM, followed by LOX 10 μM) was “markedly reduced the fluorescent signal”. The “blocking time constant (τon)” value in [3] worked out at 49.0 ± 9.6 s. The compound also came in with an inhibition at 10 µM in data set [4] of 30 to 40%.

Consider `Oc1ccc2ccccc2c1CNCCc1c[nH]c2ccccc12` [CPK13, 1-{[(2-(1H-Indol-3-yl)ethyl]amino)methyl}naphthalen-2-ol], for which the “blocking time constant (τon)” value in data set [3] is listed as 17.7 ± 2.3 s. The same compound gave an inhibition at 10 µM in [4] of 30 to 40%.

`CCOC(=O)[C@@H]1CS[C@@]2(C(=O)Nc3ccc(Br)cc32)N1C(=O)c1ccc(Cl)cc1` [CPK16, (2′S,4′R)-Ethyl 5-bromo-3′-(4-chlorobenzoyl)-2-oxospiro[indoline-3,2′-thiazolidine]-4′-carboxylate]: the “hERG-blocking activity” value in [4] is given as “devoid of hERG-blocking activity”.

`O=C(NCc1ccccc1)[C@H](Cc1c[nH]c2ccccc12)NCc1ccc(Oc2ccccc2)cc1` [CPK18, (S)-N-Benzyl-3-(1H-indol-3-yl)-2-[(4-phenoxybenzyl)amino]propanamide]: the “binding to plasma proteins” value in data set [5] came out at 99%. Further, the clearance category entry in data set [6] was “high”. Also, the CLint in vivo in [6] (NADPH + UDPGA, scaled with human PBSF) is below 80 mL min^–1 kg^–1. For the same compound, in data set [7], the recovery at 120 min was at least 80%. In addition, the “hERG-blocking activity” value in [4] was “devoid of hERG-blocking activity”.

`O=S(=O)(Nc1ccc2c(c1)CCN2Cc1ccc(C(F)(F)F)cc1C(F)(F)F)C1CCCCC1` [CPK20, N-{1-[2,4-Bis(trifluoromethyl)benzyl]indolin-5-yl}cyclohexanesulfonamide]: the “binding to plasma proteins” value in [5] is recorded as 99%. The “Hill slope (k values)” value in data set [8] is listed as −0.57 ± 0.09 mV/efold. Also, the clearance category entry in data set [6] is on record as “low clearance”. The CLint in vitro in data set [6] (NADPH + UDPGA) is listed as below 1 mL min^–1 kg^–1. The compound further yielded a recovery at 120 min in [7] of at least 80%. The “hERG-blocking activity” value in data set [4] is recorded as “devoid of hERG-blocking activity”.

In general, EC50 refers to the concentration needed to bring the measured effect to its halfway point. `CN1CCN(C2=Nc3ccccc3Oc3ccc(Cl)cc32)CC1` [LOX, loxapine] came in with an EC50 in [2] of 4 ± 1.7 µM. The “slope of the Tl+ fluorescence curve” value in data set [2] (10 μM, 15 min preincubation, KCNT1 stably transfected CHO cells) was 0.041 ± 0.006; in data set [9], 0.0007 ± 0.0006.

The IC50 is the concentration at which inhibition is half-maximal. For the compound `C=C[C@H]1C[N@@]2CC[C@H]1C[C@@H]2[C@@H](O)c1ccnc2ccc(OC)cc12` [QND, quinidine], the IC50 was […] in data set [1] (read-out: hERG IC50, heterologously expressed hERG channels) and 80 to 100 µM in data set [10].

Turning to `COc1ccc(Cl)cc1NC(=O)CN1CCN(S(=O)(=O)N2CCC(C)CC2)CC1` [VU0606170], the “KCNT2 blocking effect” value in data set [11] is “no KCNT2 blocking effect”.

Turning to `CCCCCCC[N+](CC)(CC)CCCCc1ccc(Cl)cc1` [clofilium], the “inhibitory potency KCNT1 versus KCNT2” value in [12] is listed as “stronger inhibitory potency for KCNT1 versus KCNT2 channels”.
